Data reported in ChEMBL document CHEMBL1201862, “PubChem BioAssay data set” (2004).
Calls of active or inactive are those of the source.

Legend:
[1] = target: T1, Ubiquitin-conjugating enzyme E2 N (Homo sapiens, UniProt P61088); format: functional
T1 sequence (P61088 whole entry): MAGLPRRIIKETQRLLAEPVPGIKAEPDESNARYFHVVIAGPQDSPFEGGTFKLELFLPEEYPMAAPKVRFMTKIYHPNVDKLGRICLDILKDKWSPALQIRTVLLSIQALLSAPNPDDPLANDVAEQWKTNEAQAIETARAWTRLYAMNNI

[2] = target: T2, Galanin receptor type 3 (Homo sapiens, UniProt O60755); assay: Fluorescence-based cell-based primary high throughput dose response assay to identify antagonists of the Galanin Receptor 3 (GalR3).; format: functional
T2 sequence (O60755 whole entry): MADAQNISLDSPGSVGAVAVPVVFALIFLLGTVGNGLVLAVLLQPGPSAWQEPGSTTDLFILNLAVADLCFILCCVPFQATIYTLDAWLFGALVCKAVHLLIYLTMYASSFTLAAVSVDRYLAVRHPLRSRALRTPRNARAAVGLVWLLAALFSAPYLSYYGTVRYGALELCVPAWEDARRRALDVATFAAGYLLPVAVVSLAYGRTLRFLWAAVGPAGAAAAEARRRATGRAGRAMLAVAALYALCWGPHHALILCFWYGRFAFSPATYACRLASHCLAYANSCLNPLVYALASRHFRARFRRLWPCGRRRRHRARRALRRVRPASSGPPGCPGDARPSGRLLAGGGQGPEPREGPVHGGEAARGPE

[3] = target: T1, Ubiquitin-conjugating enzyme E2 N; format: functional; remark: listed apart in the source
[4] = cells; format: functional, cell-based; conditions: HEK-CNG
[5] = target: T3, Bcl-2-related protein A1 (Mus musculus, UniProt Q07440); format: functional;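 note: confirmatory dose–response counterscreen on Bfl-1, used to check hits from a UBC13 polyubiquitin inhibitor campaign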
T3 sequence (Q07440 whole entry): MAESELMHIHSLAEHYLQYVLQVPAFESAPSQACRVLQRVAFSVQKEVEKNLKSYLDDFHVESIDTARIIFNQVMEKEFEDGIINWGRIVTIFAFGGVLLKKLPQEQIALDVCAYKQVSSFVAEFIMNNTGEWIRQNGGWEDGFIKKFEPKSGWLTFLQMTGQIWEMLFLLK

[6] = target: Glyceraldehyde-3-phosphate dehydrogenase (Homo sapiens, UniProt P04406)
[7] = target: T4, Alkaline phosphatase, tissue-nonspecific isozyme (Homo sapiens, UniProt P05186); assay: potency against alkaline phosphatase TNAP – biochemical, luminescent, dose response, SAR follow-up (AID 1056)
T4 sequence (P05186 whole entry): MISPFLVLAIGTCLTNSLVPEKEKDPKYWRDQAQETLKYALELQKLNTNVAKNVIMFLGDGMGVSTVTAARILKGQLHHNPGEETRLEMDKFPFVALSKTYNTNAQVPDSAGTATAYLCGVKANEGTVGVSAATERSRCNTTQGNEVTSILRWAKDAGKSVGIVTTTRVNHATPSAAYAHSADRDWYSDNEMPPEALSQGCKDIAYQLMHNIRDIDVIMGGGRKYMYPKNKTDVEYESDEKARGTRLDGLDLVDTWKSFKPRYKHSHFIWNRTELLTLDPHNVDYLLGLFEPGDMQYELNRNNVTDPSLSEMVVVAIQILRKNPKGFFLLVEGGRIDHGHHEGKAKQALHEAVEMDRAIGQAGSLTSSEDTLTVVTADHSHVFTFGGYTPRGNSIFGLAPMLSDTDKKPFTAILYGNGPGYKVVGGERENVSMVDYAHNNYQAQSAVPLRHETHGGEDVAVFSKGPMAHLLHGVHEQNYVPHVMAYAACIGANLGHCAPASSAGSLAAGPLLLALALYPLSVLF

[8] = tested on: Vero; assay: cells; format: functional; conditions: Chlorocebus sabaeus
[9] = tested on: Vero; assay: cells; format: functional, cell-based; conditions: Chlorocebus sabaeus
[10] = target: T5, Aminopeptidase N (Plasmodium falciparum FcB1/Columbia, UniProt O96935); assay: malaria alanyl aminopeptidase activity blockers – biochemical, fluorogenic H-Leu-NHMec substrate, 1536-well (AID 1445); design: species or system Plasmodium falciparum 3D7, 3D7
T5 sequence (O96935 whole entry): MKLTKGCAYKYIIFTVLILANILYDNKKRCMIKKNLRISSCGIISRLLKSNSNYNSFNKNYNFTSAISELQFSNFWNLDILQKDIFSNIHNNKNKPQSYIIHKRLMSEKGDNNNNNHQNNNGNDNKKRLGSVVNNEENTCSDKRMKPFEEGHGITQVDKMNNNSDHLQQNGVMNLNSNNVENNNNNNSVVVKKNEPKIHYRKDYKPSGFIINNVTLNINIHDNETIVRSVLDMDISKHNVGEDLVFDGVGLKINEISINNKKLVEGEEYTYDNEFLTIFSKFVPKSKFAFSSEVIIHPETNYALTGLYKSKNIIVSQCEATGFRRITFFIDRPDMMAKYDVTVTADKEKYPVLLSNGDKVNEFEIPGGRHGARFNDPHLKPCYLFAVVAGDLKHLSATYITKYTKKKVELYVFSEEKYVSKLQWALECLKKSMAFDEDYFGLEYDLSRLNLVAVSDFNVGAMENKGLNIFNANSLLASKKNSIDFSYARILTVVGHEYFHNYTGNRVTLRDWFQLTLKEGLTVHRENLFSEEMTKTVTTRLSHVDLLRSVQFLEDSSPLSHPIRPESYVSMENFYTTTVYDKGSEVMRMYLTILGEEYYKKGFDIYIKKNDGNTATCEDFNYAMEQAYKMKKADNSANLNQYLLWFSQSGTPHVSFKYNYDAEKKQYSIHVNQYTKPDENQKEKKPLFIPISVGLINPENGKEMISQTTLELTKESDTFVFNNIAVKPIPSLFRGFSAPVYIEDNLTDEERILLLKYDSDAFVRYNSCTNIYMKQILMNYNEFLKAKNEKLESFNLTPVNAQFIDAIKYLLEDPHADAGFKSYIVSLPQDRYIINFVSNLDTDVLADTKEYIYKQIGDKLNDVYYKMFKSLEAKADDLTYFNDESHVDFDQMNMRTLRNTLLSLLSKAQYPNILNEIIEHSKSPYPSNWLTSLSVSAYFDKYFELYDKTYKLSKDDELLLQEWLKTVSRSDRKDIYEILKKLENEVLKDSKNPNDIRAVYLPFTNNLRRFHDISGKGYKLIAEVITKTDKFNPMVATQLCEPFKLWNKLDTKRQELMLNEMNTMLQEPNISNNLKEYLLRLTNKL

[11] = target: T6, G-protein coupled receptor 55 (Homo sapiens, UniProt Q9Y2T6); assay: inhibition of LPI-stimulated GPR55 beta-arrestin translocation – imaging, U2OS, beta-arrestin-GFP, LPI agonist, primary screen (AID 2013); format: functional;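 note: antagonist potency measured as reduced agonist-driven arrestin aggregation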
[12] = target: Peroxisome proliferator-activated receptor gamma/Nuclear receptor coactivator 3 (Homo sapiens, UniProt P37231); assay: TR-FRET dose response biochemical High Throughput Screening assay for agonists of the steroid receptor coactivator 3 (SRC-3) recruitment by the peroxisome proliferator-activated receptor gamma (PPAR gamma): non-selective agonists. [Related pubchem assays: 1301 (Confirmation screen.), 1048 (Primary screen.)]; format: functional
[13] = target: Peroxisome proliferator-activated receptor gamma/Nuclear receptor coactivator 2 (Homo sapiens, UniProt P37231); assay: (§1) TR-FRET dose response biochemical High Throughput Screening assay for agonists of the steroid receptor coactivator 2 (SRC-2) recruitment by the peroxisome proliferator-activated receptor gamma (PPAR gamma): non-selective agonists. [Related pubchem assays: 1297, 1032 ]; format: functional
[14] = target: Peroxisome proliferator-activated receptor gamma/Nuclear receptor coactivator 1 (Homo sapiens, UniProt P37231); assay: as §1, with “1 (SRC-1)” for “2 (SRC-2)”, “assays (depositor defined):AID1300, AID1808, AID504735, AID631]” for “assays: 1297, 1032 ]”; format: protein assay
[15] = target: Cytochrome P450 3A4 (Homo sapiens, UniProt P08684);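 note: CYP3A4 tested as one member of a cytochrome P450 panel screen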
[16] = target: T7, Endoribonuclease toxin MazF (Escherichia coli K-12, UniProt P0AE70); assay: activation of MazEF endoribonuclease cleavage – biochemical, fluorescence, single-stranded RNA substrate, uHTS hits, dose response (AID 588481); format: functional
T7 sequence (P0AE70 whole entry): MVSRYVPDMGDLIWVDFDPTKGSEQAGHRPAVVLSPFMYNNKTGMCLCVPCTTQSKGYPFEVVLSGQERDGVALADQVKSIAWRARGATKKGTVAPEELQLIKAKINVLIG

[17] = target: T7, Endoribonuclease toxin MazF; assay: substrate-only fluorescence increase artefacts – biochemical, single-stranded RNase substrate, counter-screen for MazEF activator project, dose response (AID 588502); format: functional
[18] = viability loss of HPDE-C7K cells – cell-based, fluorescence, HTS, primary screen (AID 431); format: functional; conditions: Homo sapiens
[19] = target: T8, Streptokinase A (Streptococcus pyogenes serotype M1, UniProt P10520); assay: viability-normalized secreted streptokinase activity reduction – plasminogen activation absorbance, OD405, dose response (AID 1914); format: functional, Streptococcus pyogenes M1 GAS;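 note: secreted streptokinase activity via plasminogen activation per viability signal from cell pellet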
T8 sequence (P10520 whole entry): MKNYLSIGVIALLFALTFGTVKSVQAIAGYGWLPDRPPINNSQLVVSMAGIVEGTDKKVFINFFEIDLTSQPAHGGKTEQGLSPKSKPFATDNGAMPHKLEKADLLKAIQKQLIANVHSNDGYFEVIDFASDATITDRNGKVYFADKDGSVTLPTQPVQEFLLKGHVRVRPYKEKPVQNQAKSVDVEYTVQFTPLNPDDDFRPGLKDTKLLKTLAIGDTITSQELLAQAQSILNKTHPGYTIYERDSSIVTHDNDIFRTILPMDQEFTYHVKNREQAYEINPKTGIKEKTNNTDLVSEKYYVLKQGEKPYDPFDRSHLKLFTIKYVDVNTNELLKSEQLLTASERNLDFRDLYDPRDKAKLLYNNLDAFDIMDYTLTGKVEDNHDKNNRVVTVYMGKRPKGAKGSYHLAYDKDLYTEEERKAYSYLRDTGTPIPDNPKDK

[20] = tested on: Streptococcus sp. 'group A'; assay: Streptococcus pyogenes SK(-)GAS viability under kanamycin – luminescence, BacTiterGlo, confirmation, counter-screen for streptokinase expression inhibitor project, dose response (AID 1900); format: functional, organism-based
[21] = HPDE-C7 pancreatic duct cell viability loss – fluorescence, HTS (AID 430); format: functional, cell-based; conditions: Homo sapiens
[22] = tested on: Streptococcus; assay: GAS UMAA2166 growth inhibition – luminescence, BacTiterGlo, counter-screen for streptokinase expression inhibitor project, dose response (AID 1915); format: functional, organism-based;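 note: potency for reduction of bacterial viability or growth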
[23] = target: Voltage-dependent T-type calcium channel subunit alpha-1H (Homo sapiens, UniProt O95180); format: functional;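 note: channel activity triggered by adding a high calcium stimulation buffer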
[24] = target: T6, G-protein coupled receptor 55; assay: selective activators of receptor GPR55 – imaging, U2OS cells, beta-arrestin-GFP redistribution, primary screen (AID 1961); format: functional

T6 sequence (Q9Y2T6 whole entry): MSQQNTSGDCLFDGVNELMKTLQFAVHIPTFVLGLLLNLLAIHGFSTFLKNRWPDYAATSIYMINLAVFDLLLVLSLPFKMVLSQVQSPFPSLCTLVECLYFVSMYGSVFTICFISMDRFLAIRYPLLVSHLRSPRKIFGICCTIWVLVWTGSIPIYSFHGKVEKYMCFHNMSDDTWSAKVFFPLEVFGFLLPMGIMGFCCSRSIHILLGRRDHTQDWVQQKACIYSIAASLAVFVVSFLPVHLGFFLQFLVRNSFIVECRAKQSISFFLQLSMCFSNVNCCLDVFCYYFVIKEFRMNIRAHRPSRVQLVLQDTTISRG
Sequence of Peroxisome proliferator-activated receptor gamma/Nuclear receptor coactivator 1 (P37231 whole entry): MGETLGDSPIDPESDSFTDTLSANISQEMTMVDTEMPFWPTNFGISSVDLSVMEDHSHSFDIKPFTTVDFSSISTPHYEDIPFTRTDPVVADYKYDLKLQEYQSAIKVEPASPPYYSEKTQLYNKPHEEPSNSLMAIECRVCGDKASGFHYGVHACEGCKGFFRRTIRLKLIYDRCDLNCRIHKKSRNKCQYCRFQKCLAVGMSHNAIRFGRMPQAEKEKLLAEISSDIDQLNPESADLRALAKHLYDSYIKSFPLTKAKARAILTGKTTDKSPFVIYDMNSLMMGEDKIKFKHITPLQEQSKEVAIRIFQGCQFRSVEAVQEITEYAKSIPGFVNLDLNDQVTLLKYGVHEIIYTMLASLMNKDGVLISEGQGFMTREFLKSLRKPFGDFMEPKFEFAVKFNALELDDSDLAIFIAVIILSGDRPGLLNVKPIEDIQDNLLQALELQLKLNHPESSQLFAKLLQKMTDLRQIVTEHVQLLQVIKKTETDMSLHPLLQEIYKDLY
Sequence of Peroxisome proliferator-activated receptor gamma/Nuclear receptor coactivator 1 (Q15788 whole entry, further chain): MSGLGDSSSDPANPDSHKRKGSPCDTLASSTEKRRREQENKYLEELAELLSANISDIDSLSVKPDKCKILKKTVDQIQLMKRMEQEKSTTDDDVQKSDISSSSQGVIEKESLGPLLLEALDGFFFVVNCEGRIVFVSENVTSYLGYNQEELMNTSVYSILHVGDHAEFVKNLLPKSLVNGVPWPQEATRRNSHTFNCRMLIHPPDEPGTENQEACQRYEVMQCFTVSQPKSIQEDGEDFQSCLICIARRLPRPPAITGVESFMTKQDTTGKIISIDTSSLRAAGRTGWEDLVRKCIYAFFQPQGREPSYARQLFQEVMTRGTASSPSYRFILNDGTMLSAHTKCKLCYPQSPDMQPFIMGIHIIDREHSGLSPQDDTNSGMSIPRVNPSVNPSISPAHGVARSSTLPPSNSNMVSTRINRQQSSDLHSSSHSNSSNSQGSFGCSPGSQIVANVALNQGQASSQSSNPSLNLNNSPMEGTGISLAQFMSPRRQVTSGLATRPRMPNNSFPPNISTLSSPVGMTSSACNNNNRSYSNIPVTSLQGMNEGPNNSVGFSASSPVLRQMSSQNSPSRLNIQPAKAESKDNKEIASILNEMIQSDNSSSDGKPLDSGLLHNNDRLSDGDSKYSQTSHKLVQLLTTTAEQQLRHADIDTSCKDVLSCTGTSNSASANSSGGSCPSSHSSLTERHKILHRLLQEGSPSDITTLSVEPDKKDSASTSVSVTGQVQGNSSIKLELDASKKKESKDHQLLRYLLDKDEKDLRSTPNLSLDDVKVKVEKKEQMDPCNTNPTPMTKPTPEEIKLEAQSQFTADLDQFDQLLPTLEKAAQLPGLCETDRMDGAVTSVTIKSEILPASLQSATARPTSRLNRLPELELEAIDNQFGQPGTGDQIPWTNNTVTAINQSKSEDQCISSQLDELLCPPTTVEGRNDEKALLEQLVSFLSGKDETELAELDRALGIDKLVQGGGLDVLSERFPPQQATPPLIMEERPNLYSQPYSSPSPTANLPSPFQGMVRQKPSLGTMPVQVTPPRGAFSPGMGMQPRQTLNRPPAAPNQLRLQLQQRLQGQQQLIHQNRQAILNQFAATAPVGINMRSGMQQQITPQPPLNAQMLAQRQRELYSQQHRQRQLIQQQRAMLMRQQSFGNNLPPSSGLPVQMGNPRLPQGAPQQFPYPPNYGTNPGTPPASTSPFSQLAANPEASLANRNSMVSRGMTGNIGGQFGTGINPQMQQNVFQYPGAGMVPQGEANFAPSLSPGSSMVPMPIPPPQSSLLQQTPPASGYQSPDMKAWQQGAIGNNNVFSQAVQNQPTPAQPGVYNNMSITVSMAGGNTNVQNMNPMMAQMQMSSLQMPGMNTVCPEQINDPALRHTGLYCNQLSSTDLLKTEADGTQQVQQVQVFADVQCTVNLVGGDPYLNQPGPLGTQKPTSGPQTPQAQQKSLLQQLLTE
Sequence of Peroxisome proliferator-activated receptor gamma/Nuclear receptor coactivator 3 (P37231 whole entry): as the sequence (P37231 whole entry) above
Sequence of Peroxisome proliferator-activated receptor gamma/Nuclear receptor coactivator 3 (Q9Y6Q9 whole entry, further chain): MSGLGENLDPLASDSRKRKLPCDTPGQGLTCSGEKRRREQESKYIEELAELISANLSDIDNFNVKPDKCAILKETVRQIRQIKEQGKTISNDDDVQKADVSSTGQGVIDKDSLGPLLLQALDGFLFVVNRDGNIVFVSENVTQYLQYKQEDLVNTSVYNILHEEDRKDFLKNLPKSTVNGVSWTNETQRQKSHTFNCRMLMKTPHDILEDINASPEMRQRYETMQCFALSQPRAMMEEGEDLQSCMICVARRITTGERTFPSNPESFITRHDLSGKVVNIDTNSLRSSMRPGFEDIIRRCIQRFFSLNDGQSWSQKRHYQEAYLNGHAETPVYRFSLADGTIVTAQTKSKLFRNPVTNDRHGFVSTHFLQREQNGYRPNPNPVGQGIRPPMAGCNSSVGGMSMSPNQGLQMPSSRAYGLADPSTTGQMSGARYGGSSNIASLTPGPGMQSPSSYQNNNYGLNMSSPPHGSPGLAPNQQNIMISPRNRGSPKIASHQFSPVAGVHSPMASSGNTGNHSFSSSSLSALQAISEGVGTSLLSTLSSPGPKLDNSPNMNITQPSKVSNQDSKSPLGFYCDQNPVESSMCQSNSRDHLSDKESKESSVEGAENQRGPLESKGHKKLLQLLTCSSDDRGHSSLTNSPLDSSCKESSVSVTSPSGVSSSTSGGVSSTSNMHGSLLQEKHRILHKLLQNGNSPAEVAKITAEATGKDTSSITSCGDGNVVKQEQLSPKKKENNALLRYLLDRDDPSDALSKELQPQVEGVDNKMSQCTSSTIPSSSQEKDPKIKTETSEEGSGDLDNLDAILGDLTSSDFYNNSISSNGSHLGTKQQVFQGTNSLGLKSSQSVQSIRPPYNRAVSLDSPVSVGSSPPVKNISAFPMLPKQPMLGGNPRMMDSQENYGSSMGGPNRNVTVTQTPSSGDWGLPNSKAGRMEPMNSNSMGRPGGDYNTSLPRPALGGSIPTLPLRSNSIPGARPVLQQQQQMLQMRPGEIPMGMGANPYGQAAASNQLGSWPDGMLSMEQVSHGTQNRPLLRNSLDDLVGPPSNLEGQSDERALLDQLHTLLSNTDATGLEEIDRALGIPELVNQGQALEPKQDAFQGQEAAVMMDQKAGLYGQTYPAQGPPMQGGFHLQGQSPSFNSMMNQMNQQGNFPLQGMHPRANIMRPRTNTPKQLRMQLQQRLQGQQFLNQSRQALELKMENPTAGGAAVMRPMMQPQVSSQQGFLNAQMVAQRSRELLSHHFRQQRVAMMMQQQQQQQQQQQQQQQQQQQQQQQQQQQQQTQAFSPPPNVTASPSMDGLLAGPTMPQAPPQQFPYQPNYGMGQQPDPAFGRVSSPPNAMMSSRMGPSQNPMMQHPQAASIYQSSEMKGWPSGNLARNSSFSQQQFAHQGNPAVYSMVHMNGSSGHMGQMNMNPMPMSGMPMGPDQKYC
Sequence of Glyceraldehyde-3-phosphate dehydrogenase (P04406 whole entry): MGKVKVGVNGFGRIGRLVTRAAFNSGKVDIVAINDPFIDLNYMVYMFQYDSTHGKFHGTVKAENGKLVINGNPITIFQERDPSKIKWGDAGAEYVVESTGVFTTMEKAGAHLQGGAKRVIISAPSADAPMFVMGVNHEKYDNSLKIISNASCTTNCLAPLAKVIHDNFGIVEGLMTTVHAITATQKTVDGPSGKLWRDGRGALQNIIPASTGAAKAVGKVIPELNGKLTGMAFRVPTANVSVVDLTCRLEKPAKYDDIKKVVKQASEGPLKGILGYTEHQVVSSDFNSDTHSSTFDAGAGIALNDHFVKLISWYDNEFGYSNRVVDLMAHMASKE
Sequence of Cytochrome P450 3A4 (P08684 whole entry): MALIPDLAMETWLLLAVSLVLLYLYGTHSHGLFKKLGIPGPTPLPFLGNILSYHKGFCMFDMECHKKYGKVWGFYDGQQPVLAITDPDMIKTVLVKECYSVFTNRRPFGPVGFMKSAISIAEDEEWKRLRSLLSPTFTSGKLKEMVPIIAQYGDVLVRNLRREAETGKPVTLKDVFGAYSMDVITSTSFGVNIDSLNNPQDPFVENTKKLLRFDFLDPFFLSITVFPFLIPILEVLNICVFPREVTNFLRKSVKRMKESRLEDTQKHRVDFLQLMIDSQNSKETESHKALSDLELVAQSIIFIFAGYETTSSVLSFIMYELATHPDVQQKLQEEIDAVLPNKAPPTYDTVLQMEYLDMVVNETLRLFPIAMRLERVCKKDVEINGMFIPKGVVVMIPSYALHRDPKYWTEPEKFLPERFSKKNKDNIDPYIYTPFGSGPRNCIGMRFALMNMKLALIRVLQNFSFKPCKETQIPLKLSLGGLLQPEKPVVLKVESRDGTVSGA

Structure (SMILES): O=C(NCC1CCN(Cc2ccc(Cl)cc2)CC1)C1CCCN(c2ncnc3c2nc2n3CCCCC2)C1 (stereo not given)
- IC50 [1]: 7.67 µM (active)
- IC50 [2]: > 29.9 µM (inactive)
- IC50 [3]: 8.14 µM (active)
- EC50 [4]: > 29.9 µM (inactive)
- IC50 [5]: > 20 µM (inactive)

Structure (SMILES): COc1ccc(OC)c(C(=O)Nc2cnc3ccccc3c2)c1
- IC50 [6]: > 100 µM (not active)
- IC50 [7]: > 100 µM (inactive)

Structure (SMILES): Cc1ccc(N(Cc2ccccc2)C(=O)CSC(C)C(=O)Nc2cc(C)on2)cc1 (stereo not given)
- CC50 [8]: 23.3 µM (active)
- IC50 [9]: 15.6 µM (active)

Structure (SMILES): O=C(c1cccc(S(=O)(=O)N2CCCC2)c1)N1CCCC(C(F)(F)F)C1 (stereo not given)
- IC50 [1]: 10.7 µM (active)
- IC50 [3]: 8.31 µM (active)
- IC50 [5]: > 20 µM (inactive)

Structure (SMILES): COc1cc(N(O)O)ccc1S(=O)(=O)Nc1cnc2ccccc2c1
- IC50 [6]: > 100 µM (not active)
- IC50 [7]: 0.74 µM (active)

Structure (SMILES): CCCN(CCC)C(=O)CSc1nc2c(sc(=S)n2-c2ccc(OCC)cc2)c(=O)[nH]1
- IC50 [10]: 68.3 µM (active)
- IC50 [11]: 1.77 µM (active)

Structure (SMILES): O=c1c(Cl)c(N2CCN(S(=O)(=O)c3ccc(F)cc3)CC2)cnn1-c1cccc(Cl)c1
- EC50 [12]: 18.7 µM (not active)
- EC50 [13]: 9.06 µM (active)
- EC50 [14]: 9.63 µM (active)
- AC50 [15]: 20 µM (inconclusive)

Structure (SMILES): CCc1ccc(OC)c(S(=O)(=O)Nc2cccnc2)c1
- IC50 [6]: > 100 µM (not active)
- IC50 [7]: 1.72 µM (active)

Structure (SMILES): ClCc1csc(-c2ccccc2Cl)n1
- EC50 [12]: > 79.4 µM (not active)
- EC50 [13]: > 79.4 µM (not active)
- EC50 [14]: > 79.4 µM (inactive)

Structure (SMILES): COc1cccc(-c2ccc(NC(=O)C3CCCN(Cc4cnc(C)n4C)C3)cc2)c1 (stereo not given)
- CC50 [8]: > 25 µM (active)
- IC50 [9]: 20.3 µM (active)

Structure (SMILES): CC(C)Sc1oc(-c2ccco2)nc1S(=O)(=O)c1ccccc1
- EC50 [12]: > 79.4 µM (not active)
- EC50 [13]: 9.32 µM (active)
- EC50 [14]: 6.48 µM (active)

Structure (SMILES): Cn1ncc(/N=C/c2c(O)ccc3ccccc23)c1C(=O)Nc1cccc(Cl)c1
- EC50 [16]: 26.2 µM (inactive)
- EC50 [17]: 94.5 µM (inactive)

Structure (SMILES): CCCCCn1c(CN2CCN(c3cc(Cl)ccc3C)CC2)nc2c1c(=O)[nH]c(=O)n2C
- EC50 [18]: > 20 µM (not active)
- EC50 [19]: > 150 µM (not active)
- EC50 [20]: 4.65 µM (active)
- EC50 [21]: 12.8 µM (active)
- EC50 [22]: 5.85 µM (active)
- EC50 [23]: 5.57 µM (active)
- EC50 [24]: 4.7 µM (active)
- AC50 [15]: 2.24 µM (inconclusive)

Structure (SMILES): N#C/C(=C/C1=C(N2CCOCC2)C(=C/c2cccc([N+](=O)[O-])c2)/CC1)C(=O)Nc1ccccc1F
- EC50 [16]: > 99 µM (inactive)
- EC50 [17]: > 99 µM (inactive)

Structure (SMILES): CN1C(=O)/C(=C/c2c[nH]nc2-c2ccccc2)SC1=S
- IC50 [11]: 0.653 µM (active)

Structure (SMILES): CCCn1c(SCC(=O)Nc2nc3ccccc3s2)nc2c1c(=O)n(C)c(=O)n2C
- EC50 [16]: > 99 µM (inactive)
- EC50 [17]: > 99 µM (inactive)
